Laboratory results taken from article PMC6926618, “Modification of Polyacrylonitrile Fibers by Coupling to Thiosemicarbazones” (Materials, 2019).
“And” between values parts separate entries of the source, which are not always exact repeats. Equal entries are not always repeated. Where two headings read alike, the source gives them in different places.

What was measured:
[1] = Potentiometric titration, stability constant of complex with Mn^2+; assay type: physicochemical; details: 25 °C, water with 20% DMSO, KNO3
Method: (§1) The stability constant of the complex was tested using a Metrohm 877 Titrino plus automatic potentiometric titrator (Metrohm, Herisau, Switzerland). The titration temperature was maintained at 25 ± 0.5 °C with pH range of 2–11. The titration solution was water solution with 20% DMSO, and the ionic strength I = […] KNO3 (aq). The initial concentration was [L] = 0.005–0.0001 mol·L^−1, [HNO3] = 0.002 mol·L^−1, [KNO3] = 0.10 mol·L^−1, and [M] = 0.0001 mol·L^−1. The total volume was 25 mL, the titration volume was 0.004 mL·D^−1, and the response time was at least 1 min. The titration was triplicate and the titration data were fitted using Hyperquad 2013 software, where the ion product of H2O was pKw = 13.85 [18]. The distribution curve of species with pH was plotted using HySS 2009 software (Version 2009, Hyperquad Co. Ltd., London, UK). Three metal ions, Cu^2+, Zn^2+, and Mn^2+, were chosen as model ions in this work. The stability constants of the thiosemicarbazone compounds forming complexes with the above three metal ions and the species distribution under different pH conditions were investigated in detail.

[2] = system: S. aureus; experiment: Antibacterial test on plates (zones of inhibition); assay type: cell-based; details: for antibacterial activity on S. aureus (zones of inhibition): 20 g/L and 10 g/L on plates, Figure 11; for Concentration (bacteriostatic effect), S. aureus: Table 7, Figure 12
[3] = system: B. subtilis; experiment: Antibacterial test on plates (zones of inhibition); assay type: cell-based; details: 20 g/L and 10 g/L on plates, Figure 11
[4] = molecular target: tyrosinase; experiment: Tyrosinase activity analysis (L-DOPA oxidation, spectrophotometry at 475 nm); assay type: biochemical
Method: Tyrosinase activity was determined by spectrophotometry, as 3,4-dihydroxyphenylalanine (L-DOPA, Sigma) oxidation activity, with a modification of a reported method. In brief, the tyrosinase solution (50 µL) was gently added to 450 µL of phosphate buffer at a concentration of 0.05 M containing 50 µM samples. The pH of the solution was maintained at 6.8. Then, the mixture was incubated at 30 °C for 10 min and 500 µL of 5 mM L-DOPA solution was added. […] This intensity of the peaks was recorded based on time. The tyrosinase activity was analyzed from the initial rate. The buffer containing 1% DMSO was used as a control sample. The inhibition rate of the test solution against tyrosinase was calculated using the corresponding negative control as a reference, and an approximation of the half-inhibitory concentration (IC50) was estimated based on the concentration-enzyme inhibition rate curve.

[5] = Potentiometric titration, stability constant of complex with Zn^2+; assay type: physicochemical; details: 25 °C, water with 20% DMSO, KNO3
Method: as §1

[6] = system: A549 cells; experiment: MTT cytotoxicity assay; assay type: cell-based; details: for Concentration of Compounds When 80% of Cells Survive: 48 h co-culture
Method: The cytotoxic effect of compounds was determined by using in vitro colorimetric MTT assay. The A549 cells were seeded into 96-well microtiter tissue culture plates with a final volume of 100 μL. After attachment for 24 h, the cells were treated with different concentrations (0.1, 1, 10, 50, and 100 μM) of thiosemicarbazone compounds in the culture medium. Eight replicate wells per concentration were used and all experiments were repeated in triplicate. The solvent control (DMSO) was also assayed in parallel. The cells were incubated for 24 h and 48 h with compounds. Then, MTT dye was added 4 h before the completion of the incubation periods. The resulting formazan crystals were separated from the medium and then dissolved in 100 μL DMSO. The absorbance at 490 nm was used to quantify the plates using ELx808 Absorbance Microplate Reader (Bio-Tek, Winooski, USA).

[7] = system: E. coli; experiment: Antibacterial test on plates (zones of inhibition); assay type: cell-based; details: 20 g/L and 10 g/L on plates, Figure 11a
[8] = Potentiometric titration, stability constant of complex with Cu^2+; assay type: physicochemical; details: 25 °C, water with 20% DMSO, KNO3
Method: as §1

[9] = system: S. aureus; experiment: Antibacterial test GB/T20944.3-2008, colony count, inhibition rate; assay type: cell-based; details: Staphylococcus aureus, DY6 at 1.0 µM vs control sample, read-out: inhibition effect (colony-forming bacterial units)
Method: Antibacterial performance against bacteria (E. coli, S. aureus, and B. subtilis) was determined according to GB/T20944.3-2008. The inoculation suspension of bacteria was prepared and the inoculation loop was used to conduct the bacterial inoculation on the agar board for 18–24 h at 37 ± 1 °C. The sample was dipped into the conical flask filled with experimental bacteria solution with a certain concentration. After that, the oscillation culture is conducted to the samples for specified time, and 1 mL of solution was taken, diluted and distributed onto an agar plate. All plates were incubated at 37 °C for 24 h and the colonies formed were counted. […] Qt is the bacteria-colony number of viable bacteria in the plate after antibacterial treatment or grafted PAN fibers.
Figure 13 Antibacterial effect against S. aureus: (a) control sample; (b) after treatment with DY6 ay the concentration of 1.0 µM; (c) original PAN fibers; and (d) grafted DY6–PAN fibers.

[10] = L-DOPA substrate, pH 6.8, 30 °C, approximation from concentration-inhibition curve, read-out: IC50 (semi-inhibitory concentration of tyrosinase)

NC(=S)N/N=C/c1cc(Cl)ccc1O [DY5]
logKMn^2+, n = 1 [1]: 13.65 ± 0.16 M^−1 | antibacterial activity on S. aureus (zones of inhibition) [2]: good antibacterial activities | antibacterial activity on B. subtilis (zones of inhibition) [3]: good antibacterial activities | IC50 [4, 10]: 1.68 µM | logKZn^2+, n = 1 [5]: 12.51 ± 0.20 M^−1 | effective concentration (A549 cell survival rate maintained above 80%) [6]: 50 µM | Concentration of Compounds When 80% of Cells Survive [6]: <50 µM | antibacterial effect on E. coli [7]: do not have an antibacterial effect | logKCu^2+, n = 1 [8]: 19.43 ± 0.22 M^−1

NC(=S)N/N=C/c1cc(O)ccc1O [DY2]
logKMn^2+, n = 1 [1]: 14.27 ± 0.17 M^−1 | logKZn^2+, n = 1 [5]: 13.53 ± 0.11 M^−1 | logKCu^2+, n = 1 [8]: 18.83 ± 0.14 M^−1

Cc1ccc(O)c(/C=N/NC(N)=S)c1 [DY1]
logKMn^2+, n = 1 [1]: 13.67 ± 0.31 M^−1 | antibacterial activity on S. aureus (zones of inhibition) [2]: good antibacterial activities | Concentration (bacteriostatic effect), S. aureus [2]: 0.02 µM | antibacterial activity on B. subtilis (zones of inhibition) [3]: good antibacterial activities | IC50 [4, 10]: 1.88 µM | logKZn^2+, n = 1 [5]: 13.13 ± 0.21 M^−1 | effective concentration (A549 cell survival rate maintained above 80%) [6]: up to 100 μM | Concentration of Compounds When 80% of Cells Survive [6]: <100 µM | antibacterial effect on E. coli [7]: do not have an antibacterial effect | logKCu^2+, n = 1 [8]: 19.15 ± 0.11 M^−1

CCN(CC)c1ccc(/C=N/NC(N)=S)c(O)c1 [DY6]
logKMn^2+, n = 1 [1]: 14.37 M^−1 and 14.37 ± 0.30 M^−1 | antibacterial activity on S. aureus (zones of inhibition) [2]: good antibacterial activities | Concentration (bacteriostatic effect), S. aureus [2]: 0.02 µM | antibacterial activity on B. subtilis (zones of inhibition) [3]: good antibacterial activities | IC50 ([4]; L-DOPA method, blank control 1% DMSO, read-out: IC50 (semi-inhibitory curve, Figure 3)): 0.6 µM | IC50 [4, 10]: 0.6 µM | inhibition at 1 µM [9]: 88.6% | logKZn^2+, n = 1 [5]: 14.07 M^−1 and 14.07 ± 0.37 M^−1 | effective concentration (A549 cell survival rate maintained above 80%) [6]: up to 100 μM | Concentration of Compounds When 80% of Cells Survive [6]: <100 µM | antibacterial effect on E. coli [7]: do not have an antibacterial effect | logKCu^2+, n = 1 [8]: 20.15 M^−1 and 20.15 ± 0.14 M^−1

NC(=S)N/N=C/c1cc([N+](=O)[O-])ccc1O [DY3]
logKMn^2+, n = 1 [1]: 14.48 ± 0.11 M^−1 | IC50 [4, 10]: 9.88 µM | logKZn^2+, n = 1 [5]: 13.69 ± 0.12 M^−1 | effective concentration (A549 cell survival rate maintained above 80%) [6]: 50 µM | Concentration of Compounds When 80% of Cells Survive [6]: <50 µM | logKCu^2+, n = 1 [8]: 19.10 ± 0.15 M^−1

COc1ccc(/C=N/NC(N)=S)c(O)c1 [DY4]
logKMn^2+, n = 1 [1]: 14.01 ± 0.08 M^−1 | antibacterial activity on S. aureus (zones of inhibition) [2]: good antibacterial activities | antibacterial activity on B. subtilis (zones of inhibition) [3]: good antibacterial activities | IC50 [4, 10]: 1.12 µM | logKZn^2+, n = 1 [5]: 13.56 ± 0.17 M^−1 | effective concentration (A549 cell survival rate maintained above 80%) [6]: up to 100 μM | Concentration of Compounds When 80% of Cells Survive [6]: <100 µM | antibacterial effect on E. coli [7]: do not have an antibacterial effect | logKCu^2+, n = 1 [8]: 18.95 ± 0.10 M^−1

NC(=S)N/N=C/c1ccc2c(c1)OCCO2 [DY7]
IC50 [4, 10]: 41.2 µM | effective concentration (A549 cell survival rate maintained above 80%) [6]: 50 µM | Concentration of Compounds When 80% of Cells Survive [6]: <50 µM
